# Laboratory results published in patent US8809555B2, “Anti-leishmanial compound and anti-leishmanial drug” (Aoyama Gakuin Educational Foundation, priority 2010, dated 2014).
# What was measured:
# [1] = test system: L. major PM2; experiment: Analysis of in vivo anti-leishmanial activity (leishmaniasis mouse model); conditions: mice infected with 1×10^7 promastigotes of L. major PM2; 200 μg by peritoneal injection once a day for three weeks; size of ulcer, antibody titer in blood, protozoan DNA in blood (FIG. 10-12)
# Procedure: In order to evaluate the in vivo anti-leishmanial activity of the compound represented by formula (3), which had been isolated by the procedure described above, a leishmaniasis mouse model was used to investigate the therapeutic effect. Six-week old mice ([…], male, 6 animals per group) were infected with 1×10^7 cells of cultured promastigotes of L. major PM2. From the day after the infection day, the compound represented by the formula (3) was administered to each specimen in an amount of 200 μg by peritoneal injection. The administration schedule was such that the compound was continuously administered once a day for three weeks. Further, as control, the same analysis was carried out also for a treatment group to which Amphotericin B was administered, and for a treatment group to which none was administered.
# [2] = test system: Leishmania major promastigotes (MHOM/UZ/91/PM2); experiment: Analysis of in vitro anti-leishmanial activity (growth inhibition of L. major/egfp promastigotes, fluorescence); assay type: cell-based; conditions: 25° C., 72 h, inhibition with Amphotericin B (positive control) defined as 100%, FIG. 9
# Description: The compounds represented by formulas (1) to (6), which had been isolated by the procedure described above, were subjected to an analysis of the physiological activity under the conditions that are described below. Leishmania major promastigotes (MHOM/UZ/91/PM2) were selected as the Leishmania protozoa, and a L. major/egfp promastigotes in which a fluorescent protein egfp gene had been introduced was used. The compounds mentioned above were used as samples. Thus, the growth inhibition rate was determined under the following conditions.
# Promastigotes of transgenic Leishmania major (MHOM/UZ/91/PM2) expressing enhanced green fluorescent protein (L. major/egfp) were maintained at 25° C. in 199 medium (NISSUI Pharmaceutical, Tokyo, Japan) containing 10% fetal bovine serum, 25 mM Hepes buffer (MP Biomedicals, LLC) and 10 μg/mL […] (SIGMA-ALDRICH, inc., USA). […] Thereafter, fluorescence signals of L. major/egfp promastigotes were measured with a fluorescence microplate reader (Fluoroscan Ascent FL, Dainippon. Pharmaceutical Co., Osaka, Japan) with excitation at 485 nm and emission at 538 nm. […]
smiles,measurement,setting,value
CC(C)=CCC/C(C)=C/CC/C(C)=C/CC/C(C)=C/CC1(CC(=O)O)CC(=O)C=CC1=O (centres unmarked) [formula (3)],in vivo anti-leishmanial activity,[1],equal to that of Amphotericin B
same,growth inhibition rate,[2],almost equal to the growth inhibition rate of Amphotericin B
